Some results are limits rather than exact numbers.

Assay [1] concerns Canine platelets. Put plainly: Platelet cell viability assay (platelet-rich plasma, Cell Titer Glo). In kind it is cell-based. Particulars: Canis lupus familiaris, 5 h, isolated canine platelets ex vivo, five hours at 37° C. The gist of the method: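 Isolated canine platelets were incubated ex vivo with a range of compound concentrations. After 20 min equilibration at room temperature, viability was measured by Cell Titer Glo luminescence.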

Assay [2] has as its target GST-Bcl-XL (Homo sapiens, UniProt Q07817). Put plainly: TR-FRET binding assay, GST-Bcl-XL with F-Bak peptide probe. Particulars: TR-FRET Binding Affinity, GST-Bcl-XL, F-Bak peptide probe. In a few lines: (§1)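 Ki was derived with Wang's equation for competitive binding of two ligands. The read-out was time-resolved fluorescence after a 3 h room-temperature incubation, using a Tb-labelled antibody donor and the F-Bak peptide acceptor (excitation 340/35 nm). Test compounds entered as DMSO serial dilutions starting at 50 μM, which was the 2× concentration.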

The target of assay [3] is GST-Bcl-2 (Homo sapiens, UniProt P10415). The assay can be described thus: TR-FRET binding assay, GST-Bcl-2 with F-Bak peptide probe. The settings on record: TR-FRET Binding Affinity, GST-Bcl-2, F-Bak peptide probe. In a few lines: as §1
Sequence of GST-Bcl-2 (P10415 whole entry): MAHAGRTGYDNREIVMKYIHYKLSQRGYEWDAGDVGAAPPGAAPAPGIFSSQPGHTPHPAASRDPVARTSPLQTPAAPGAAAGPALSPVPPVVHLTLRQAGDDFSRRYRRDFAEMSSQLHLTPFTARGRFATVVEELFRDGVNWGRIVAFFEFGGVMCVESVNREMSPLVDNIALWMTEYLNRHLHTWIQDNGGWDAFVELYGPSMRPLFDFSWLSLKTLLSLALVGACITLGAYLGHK
Assay [4] has as its system FL5.12/Bcl-2 cells. The assay can be described thus: FL5.12/Bcl-2 cell viability assay under IL-3 withdrawal (CellTitre Glo). Type of assay: cell-based, murine. The settings on record: Mus musculus, IL-3 withdrawn 48 hrs, then 24 hrs with compound. In a few lines:
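Viability measured by CellTitre Glo after FL5.12/Bcl-2 murine cells, starved of IL-3 for 48 hrs, were treated with compounds for another 24 hrs. Killing reflects inhibition of Bcl-2 sequestration of Bim and Puma.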

Sequence of GST-Bcl-XL (Q07817 whole entry): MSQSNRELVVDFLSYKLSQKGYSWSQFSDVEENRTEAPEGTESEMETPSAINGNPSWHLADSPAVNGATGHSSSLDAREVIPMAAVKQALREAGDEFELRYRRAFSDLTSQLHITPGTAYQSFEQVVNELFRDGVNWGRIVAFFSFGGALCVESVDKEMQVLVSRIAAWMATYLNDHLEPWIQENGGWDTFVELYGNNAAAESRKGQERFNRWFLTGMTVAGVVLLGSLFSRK

Consider `CC1(C)CCC(CN2CCN(c3ccc(C(=O)NS(=O)(=O)c4ccc(NCCCN5CCCC5)c([N+](=O)[O-])c4)c(Oc4cccc5[nH]ccc45)c3)CC2)=C(c2ccc(Cl)cc2)C1` [Example 102, 4-(4-{[2-(4-chlorophenyl)-4,4-dimethylcyclohex-1-en-1-yl]methyl}piperazin-1-yl)-2-(1H-indol-4-yloxy)-N-({3-nitro-4-[(3-pyrrolidin-1-ylpropyl)amino]phenyl}sulfonyl)benzamide], for which the EC50 came out at 20200 nM in assay [1] and 20 nM in assay [4]. For the same molecule, the Ki in assay [2] was 2.24 nM; in assay [3], 0.035 nM.

For `CN1CCC(Nc2ccc(S(=O)(=O)NC(=O)c3ccc(N4CCN(CC5=C(c6ccc(Cl)cc6)CC(C)(C)CC5)CC4)cc3Oc3cccc4[nH]ccc34)cc2[N+](=O)[O-])CC1` [Example 103, 4-(4-{[2-(4-chlorophenyl)-4,4-dimethylcyclohex-1-en-1-yl]methyl}piperazin-1-yl)-2-(1H-indol-4-yloxy)-N-({4-[(1-methylpiperidin-4-yl)amino]-3-nitrophenyl}sulfonyl)benzamide], the EC50 in assay [1] came out at 31400 nM; in assay [4], 14 nM. Moreover, the Ki in assay [2] was 117 nM; in assay [3] it was 0.056 nM.

For `CN1CCC(CNc2ccc(S(=O)(=O)NC(=O)c3ccc(N4CCN(CC5=C(c6ccc(Cl)cc6)CC(C)(C)CC5)CC4)cc3Oc3ccc4[nH]ccc4c3)cc2[N+](=O)[O-])CC1` [Example 104, 4-(4-{[2-(4-chlorophenyl)-4,4-dimethylcyclohex-1-en-1-yl]methyl}piperazin-1-yl)-2-(1H-indol-5-yloxy)-N-[(4-{[(1-methylpiperidin-4-yl)methyl]amino}-3-nitrophenyl)sulfonyl]benzamide], the concentration for a half-maximal effect (EC50) was over 50000 nM in assay [1] and 21 nM in assay [4]. For the same molecule, the Ki in assay [2] was 49.1 nM; in assay [3] it was 0.077 nM.

With `CN1CCC(CNc2ccc(S(=O)(=O)NC(=O)c3ccc(N4CCN(CC5=C(c6ccc(Cl)cc6)CC(C)(C)CC5)CC4)cc3Oc3cccc4[nH]ccc34)cc2[N+](=O)[O-])CC1` [Example 105, 4-(4-{[2-(4-chlorophenyl)-4,4-dimethylcyclohex-1-en-1-yl]methyl}piperazin-1-yl)-2-(1H-indol-4-yloxy)-N-[(4-{[(1-methylpiperidin-4-yl)methyl]amino}-3-nitrophenyl)sulfonyl]benzamide], the EC50 in assay [1] was found to be 30300 nM; in assay [4], 13 nM. Also, the Ki in assay [2] worked out at 5.02 nM; in assay [3], 0.08 nM.

Take `CN1CCC(CNc2ccc(S(=O)(=O)NC(=O)c3ccc(N4CCN(CC5=C(c6ccc(Cl)cc6)CC(C)(C)CC5)CC4)cc3Oc3ccc4[nH]ccc4c3)cc2[N+](=O)[O-])(N(C)C)CC1` [Example 109, 4-(4-{[2-(4-chlorophenyl)-4,4-dimethylcyclohex-1-en-1-yl]methyl}piperazin-1-yl)-N-{[4-({[4-(dimethylamino)-1-methylpiperidin-4-yl]methyl}amino)-3-nitrophenyl]sulfonyl}-2-(1H-indol-5-yloxy)benzamide]: the concentration giving a half-maximal response (EC50) in assay [1] is over 50000 nM; in assay [4], 36 nM. Further, the figures for the Ki in assay [2] and in assay [3] were over 660 nM and 0.161 nM, respectively.

For `CN(C)CCOc1ccc(-c2ccc(Cl)cc2)c(CN2CCN(c3ccc(C(=O)NS(=O)(=O)c4ccc(NCC5CCOCC5)c(S(=O)(=O)C(F)(F)F)c4)c(Oc4ccccc4)c3)CC2)c1` [Example 120, 4-[4-({4′-chloro-4-[2-(dimethylamino)ethoxy]-1,1′-biphenyl-2-yl}methyl)piperazin-1-yl]-2-phenoxy-N-({4-[(tetrahydro-2H-pyran-4-ylmethyl)amino]-3-[(trifluoromethyl)sulfonyl]phenyl}sulfonyl)benzamide], the EC50 in assay [1] was over 50000 nM; in assay [4], 319 nM. Also, the Ki in assay [2] is 99.6 nM; in assay [3] it was 0.443 nM.

Consider `CN(C)CCOc1ccc(-c2ccc(Cl)cc2)c(CN2CCN(c3ccc(C(=O)NS(=O)(=O)c4ccc(NCCCN5CCCC5)c([N+](=O)[O-])c4)c(Oc4ccccc4)c3)CC2)c1` [Example 121, 4-[4-({4′-chloro-4-[2-(dimethylamino)ethoxy]-1,1′-biphenyl-2-yl}methyl)piperazin-1-yl]-N-({3-nitro-4-[(3-pyrrolidin-1-ylpropyl)amino]phenyl}sulfonyl)-2-phenoxybenzamide], for which the concentration giving a half-maximal response (EC50) was determined as 309 nM in assay [1] and 38 nM in assay [4]. In addition, the values for the Ki in assay [2] and in assay [3] were 0.388 nM and 0.001 nM, respectively.

Take `CN(C)CCOc1cccc(-c2ccc(Cl)cc2)c1CN1CCN(c2ccc(C(=O)NS(=O)(=O)c3ccc(NCC4CCOCC4)c([N+](=O)[O-])c3)c(Oc3ccccc3)c2)CC1` [Example 122, 4-[4-({4′-chloro-3-[2-(dimethylamino)ethoxy]-1,1′-biphenyl-2-yl}methyl)piperazin-1-yl]-N-({3-nitro-4-[(tetrahydro-2H-pyran-4-ylmethyl)amino]phenyl}sulfonyl)-2-phenoxybenzamide]: the EC50 is over 50000 nM in assay [1] and 40 nM in assay [4]. The Ki in assay [2] stood at 12.1 nM; in assay [3], 0.058 nM.

Turning to `CN(C)CCOc1cccc(-c2ccc(Cl)cc2)c1CN1CCN(c2ccc(C(=O)NS(=O)(=O)c3ccc(NCCCN4CCCC4)c([N+](=O)[O-])c3)c(Oc3ccccc3)c2)CC1` [Example 123, 4-[4-({4′-chloro-3-[2-(dimethylamino)ethoxy]-1,1′-biphenyl-2-yl}methyl)piperazin-1-yl]-N-({3-nitro-4-[(3-pyrrolidin-1-ylpropyl)amino]phenyl}sulfonyl)-2-phenoxybenzamide], the EC50 in assay [1] was found to be 2810 nM; in assay [4], 87 nM. Besides, the results for the Ki in assay [2] and in assay [3] were 1.37 nM and 0.015 nM, respectively.

For the molecule `CN(C)CCOc1ccc(-c2ccc(Cl)cc2)c(CN2CCN(c3ccc(C(=O)NS(=O)(=O)c4ccc(NCC5CCOCC5)c([N+](=O)[O-])c4)c(Oc4cccc5[nH]ccc45)c3)CC2)c1` [Example 125, 4-[4-({4′-chloro-4-[2-(dimethylamino)ethoxy]-1,1′-biphenyl-2-yl}methyl)piperazin-1-yl]-2-(1H-indol-4-yloxy)-N-({3-nitro-4-[(tetrahydro-2H-pyran-4-ylmethyl)amino]phenyl}sulfonyl)benzamide], the EC50 is 44800 nM in assay [1] and 10 nM in assay [4]. The Ki in assay [2] worked out at 11.6 nM; in assay [3], 0.003 nM.

As for `CN(C)CCOc1ccc(-c2ccc(Cl)cc2)c(CN2CCN(c3ccc(C(=O)NS(=O)(=O)c4ccc(NCC5CCOCC5)c([N+](=O)[O-])c4)c(Oc4ccc5[nH]ccc5c4)c3)CC2)c1` [Example 126, 4-[4-({4′-chloro-4-[2-(dimethylamino)ethoxy]-1,1′-biphenyl-2-yl}methyl)piperazin-1-yl]-2-(1H-indol-5-yloxy)-N-({3-nitro-4-[(tetrahydro-2H-pyran-4-ylmethyl)amino]phenyl}sulfonyl)benzamide], the EC50 in assay [1] was over 50000 nM; in assay [4], 31 nM. Also, the Ki in assay [2] was 163 nM; in assay [3] it was 0.012 nM.

The record behind these values is patent US9073855B2, “BCL-2 selective apoptosis-inducing agents for the treatment of cancer and immune diseases” (AbbVie Inc., priority 2008, dated 2015).
